What was measured:
Zebrafish embryos [1] = test: Cholesterol assay in zebrafish embryos (Amplex Red Cholesterol Assay Kit); type: in vivo; settings: 40 μM, treated from 10 hpf to 30 hpf; FIG. 1
Description: (§1) Zebrafish embryos used in cholesterol assays were treated with aplexone or atorvastatin (AT) from 10 hpf to 30 hpf at a concentration of 40 μM. Yolks were removed by vortexing in calcium-free Ringer's solution with 1 mM EDTA at 4° C. The embryos were then washed with calcium-free Ringer's solution, resuspended in cholesterol assay reaction buffer, and lysed by sonication. Cholesterol levels in embryo lysates were measured with an Amplex Red Cholesterol Assay Kit (ThermoFisher Scientific) and FLUOstar Omega microplate reader (BMG Labtech). Protein concentrations of the embryo lysates were measured by DC protein assay (Bio-Rad Laboratories) using a FLUOstar Omega microplate reader.

[2] = system: Transgenic Tg(kdrl:GFP)la116 zebrafish embryos; test: Disruption of the caudal vein plexus in zebrafish embryos; type: in vivo; settings: two-day-old zebrafish embryos, treated beginning at 10 hpf
Description: (§2) Transgenic Tg(kdrl:GFP)la116 zebrafish embryos were treated with aplexone compounds beginning at 10 hours post fertilization (hpf). After two days of development, treated embryos were anesthetized with 0.01% tricaine and imaged using a Zeiss Axioplan 2 microscope. […] Formation of the caudal vein plexus is disrupted by treatment with 10 μM or higher of racemic (±)-aplexone (3) and 5 μM or higher of R-aplexone (3), but the caudal vein plexus forms normally even after treatment with 20 μM (S)-aplexone (3).

[3] = system: HMG-CoA reductase pathway; settings: zebrafish; Choi et al., Development 2011; cited from earlier work
zebrafish = settings: Choi et al., Development 2011; cited from earlier work
Zebrafish embryos [4] = test: Biological assays used herein (summary statement); type: in vivo
Description: as §2, §1

Row | Compound | cholesterol levels in embryo lysates compared with atorvastatin (AT) (Zebrafish embryos [1]) | concentration at which formation of the caudal vein plexus is disrupted [2] | regulation of arteriovenous angiogenesis [3] | levels of embryonic cholesterol compared with atorvastatin (zebrafish) | melting point | biological activity of the enantiomer (Zebrafish embryos [4])
1 | CC(=O)C1=CCC(c2ccccc2)N(S(=O)(=O)c2ccc(C)cc2)C1 (racemic) [(±)-aplexone, 1-(6-phenyl-1-tosyl-1,2,5,6-tetrahydropyridin-3-yl)ethan-1-one] | lowered the cholesterol levels to an extent similar to that of AT | ≥ 10 µM | regulate arteriovenous angiogenesis in zebrafish | lowered the levels of embryonic cholesterol to a degree similar to that of atorvastatin |  | 
2 | CCOC(=O)C1=CC[C@H](c2ccccc2)N(S(=O)(=O)c2ccc(C)cc2)C1 [7c, Ethyl (R)-6-phenyl-1-tosyl-1,2,5,6-tetrahydropyridine-3-carboxylate] |  |  |  |  | 145 to 146 °C | 
3 | CC(=O)C1=CC[C@H](c2ccccc2)N(S(=O)(=O)c2ccc(C)cc2)C1 [R-aplexone] | decreased the cholesterol levels to a greater extent than AT | ≥ 5 µM |  |  |  | active enantiomer
4 | CC(=O)C1=CC[C@@H](c2ccccc2)N(S(=O)(=O)c2ccc(C)cc2)C1 [S-aplexone] | no cholesterol lowering activity | > 20 µM |  |  |  | little to no biological activity

From US20220009891A1, “(R) ENANATIOMER OF APLEXONE” (The Regents of the University of California, priority 2018, published 2022)
